# Results taken from paper PMC4512978, “Synthesis and evaluation in rats of homologous series of [^18F]-labeled dopamine D2/3 receptor agonists based on the 2-aminomethylchroman scaffold as potential PET tracers” (EJNMMI Research, 2015).
# Tested on: D2/3R
# Assay: Kinetic analysis of PET data (1TCM, 2TCM, Logan, SRTM);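 on 2TCM BPND change relative to control: Raclopride 1 mg/kg intravenous pretreatment versus saline controls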;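 on SRTM BPND change relative to control: Raclopride 1 mg/kg intravenous pretreatment versus saline controls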
# Type: in vivo, Sprague-Dawley rats
# Design: key to SRTM BPND / 1TCM BPND / 2TCM BPND (VT-based): BPND = VT(target)/VT(cerebellum) − 1 (or SRTM, cerebellum reference); SRTM BPND change relative to control / 1TCM BPND change relative to control / 2TCM BPND change relative to control / Logan BPND change relative to control: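 Raclopride 1 mg/kg intravenous pretreatment versus saline controls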; 1TCM VT / 2TCM VT: unit not given here
# Experimental: Kinetic analysis is described using the nomenclature proposed by Innis et al.. ROI TACs of [^18F]FEt-AMC13 were analyzed with one-tissue and two-tissue compartmental models of reversible binding (1TCM and 2TCM, respectively) to obtain individual rate constants. From these, the regional distribution volumes (VT) were calculated and compared to those obtained with Logan graphical analysis. Binding potentials (BPND) were calculated from the distribution ratios as VT (target) / VT (cerebellum) – 1, or estimated with the simplified reference tissue model (SRTM) using the cerebellum as reference region.
# Metabolite-corrected plasma-derived arterial input function and whole blood time-activity curve were used for Logan, 1TCM, and 2TCM analyses. Fractional cerebral blood volume was set to 3.6 % [27]. For one rat in the raclopride-treated group, no input curves could be obtained; therefore, its PET data were only analyzed with SRTM.
# Degree of D2/3R-specific binding of the tracers was characterized by BPND (as given above) or the specific binding ratio (SBR) given as target region activity/cerebellar activity - 1. Both were calculated under control conditions and in response to the raclopride challenge.
# [1] = Hypothalamus, raclopride, listed as [18F]FEt-AMC13
# [2] = Olfactory bulbs, raclopride, listed as [18F]FEt-AMC13
compound,measurement,setting,value
Oc1ccc2c(c1)O[C@@H](CNCc1ccc(OCC[18F])cc1)CC2 [[^18F]FEt-AMC13],2TCM k4,"Hypothalamus, control rat D",0.09 ± 0.01 min⁻¹
same,1TCM BPND,"Hypothalamus, raclopride",0.22±0.04
same,1TCM BPND change relative to control,"Hypothalamus, raclopride",-14%
same,1TCM VT,"Hypothalamus, raclopride",5.38±0.38
same,2TCM BPND (VT-based),"Hypothalamus, raclopride",0.18 ± 0.06
same,2TCM BPND change relative to control,"Hypothalamus, raclopride",−19%
same,2TCM VT,"Hypothalamus, raclopride",5.83±0.34
same,Logan BPND,"Hypothalamus, raclopride",0.16±0.04
same,Logan BPND change relative to control,"Hypothalamus, raclopride",-25%
same,Logan VT,"Hypothalamus, raclopride",5.76±0.26
same,SRTM BPND,"Hypothalamus, raclopride",0.16 ± 0.04
same,SRTM BPND change relative to control,"Hypothalamus, raclopride",−23%
same,2TCM BPND (VT-based),[1],0.18±0.06
same,2TCM BPND change relative to control,[1],-19%
same,SRTM BPND,[1],0.16±0.04
same,SRTM BPND change relative to control,[1],–23%
same,1TCM BPND,"Olfactory bulbs, control",0.07±0.16
same,1TCM VT,"Olfactory bulbs, control",4.99±0.62
same,2TCM BPND (VT-based),"Olfactory bulbs, control",0.08 ± 0.13
same,2TCM VT,"Olfactory bulbs, control",5.45±0.52
same,Logan BPND,"Olfactory bulbs, control",0.12±0.12
same,Logan VT,"Olfactory bulbs, control",5.64±0.57
same,SRTM BPND,"Olfactory bulbs, control",0.10 ± 0.13
same,1TCM K1,"Olfactory bulbs, control rat A",0.55 ± 0.05 mL/g/min
same,1TCM k2,"Olfactory bulbs, control rat A",0.12 ± 0.02 min⁻¹
same,2TCM K1,"Olfactory bulbs, control rat A",3.58 ± 1.65 mL/g/min
same,2TCM k2,"Olfactory bulbs, control rat A",9.75 ± 3.75 min⁻¹
same,2TCM k3,"Olfactory bulbs, control rat A",1.20 ± 2.96 min⁻¹
same,2TCM k4,"Olfactory bulbs, control rat A",0.09 ± 7.03 min⁻¹
same,1TCM K1,"Olfactory bulbs, control rat B",0.49 ± 0.02 mL/g/min
same,1TCM k2,"Olfactory bulbs, control rat B",0.08 ± 0.01 min⁻¹
same,2TCM K1,"Olfactory bulbs, control rat B",0.63 ± 0.07 mL/g/min
same,2TCM k2,"Olfactory bulbs, control rat B",0.47 ± 0.34 min⁻¹
same,2TCM k3,"Olfactory bulbs, control rat B",0.69 ± 0.56 min⁻¹
same,2TCM k4,"Olfactory bulbs, control rat B",0.20 ± 0.04 min⁻¹
same,1TCM K1,"Olfactory bulbs, control rat C",0.44 ± 0.01 mL/g/min
same,1TCM k2,"Olfactory bulbs, control rat C",0.09 ± 0.005 min⁻¹
same,2TCM K1,"Olfactory bulbs, control rat C",0.59 ± 0.10 mL/g/min
same,2TCM k2,"Olfactory bulbs, control rat C",0.68 ± 0.93 min⁻¹
same,2TCM k3,"Olfactory bulbs, control rat C",1.07 ± 3.21 min⁻¹
same,2TCM k4,"Olfactory bulbs, control rat C",0.23 ± 3.75 min⁻¹
same,1TCM K1,"Olfactory bulbs, control rat D",0.50 ± 0.03 mL/g/min
same,1TCM k2,"Olfactory bulbs, control rat D",0.10 ± 0.01 min⁻¹
same,2TCM K1,"Olfactory bulbs, control rat D",1.08 ± 0.20 mL/g/min
same,2TCM k2,"Olfactory bulbs, control rat D",1.82 ± 0.90 min⁻¹
same,2TCM k3,"Olfactory bulbs, control rat D",0.92 ± 0.31 min⁻¹
same,2TCM k4,"Olfactory bulbs, control rat D",0.11 ± 0.01 min⁻¹
same,1TCM BPND,"Olfactory bulbs, raclopride",-0.02±0.03
same,1TCM BPND change relative to control,"Olfactory bulbs, raclopride",-127%
same,1TCM VT,"Olfactory bulbs, raclopride",4.36±0.55
same,2TCM BPND (VT-based),"Olfactory bulbs, raclopride",0.01 ± 0.04
same,2TCM BPND change relative to control,"Olfactory bulbs, raclopride",−88%
same,2TCM VT,"Olfactory bulbs, raclopride",5.02±0.61
same,Logan BPND,"Olfactory bulbs, raclopride",0.03±0.03
same,Logan BPND change relative to control,"Olfactory bulbs, raclopride",-74%
same,Logan VT,"Olfactory bulbs, raclopride",5.14±0.43
same,SRTM BPND,"Olfactory bulbs, raclopride",0.11 ± 0.05
same,SRTM BPND change relative to control,"Olfactory bulbs, raclopride",+10%
same,2TCM BPND (VT-based),[2],0.01±0.04
same,2TCM BPND change relative to control,[2],-88%
same,SRTM BPND,[2],0.11±0.05
same,1TCM BPND,"Pituitary, control",0.32±0.05
same,1TCM VT,"Pituitary, control",6.16±0.35
same,2TCM BPND (VT-based),"Pituitary, control",0.36 ± 0.07
same,2TCM VT,"Pituitary, control",6.89±0.32
same,Logan BPND,"Pituitary, control",0.42±0.05
same,Logan VT,"Pituitary, control",7.15±0.49
same,SRTM BPND,"Pituitary, control",0.71 ± 0.32
same,1TCM K1,"Pituitary, control rat A",0.52 ± 0.05 mL/g/min
same,1TCM k2,"Pituitary, control rat A",0.08 ± 0.02 min⁻¹
same,2TCM K1,"Pituitary, control rat A",6.16 ± 6.57 mL/g/min
same,2TCM k2,"Pituitary, control rat A",16.8 ± 16.5 min⁻¹
same,2TCM k3,"Pituitary, control rat A",1.11 ± 15.04 min⁻¹
same,2TCM k4,"Pituitary, control rat A",0.06 ± 22.82 min⁻¹
same,1TCM K1,"Pituitary, control rat B",0.63 ± 0.04 mL/g/min
same,1TCM k2,"Pituitary, control rat B",0.10 ± 0.01 min⁻¹
same,2TCM K1,"Pituitary, control rat B",1.23 ± 0.31 mL/g/min
same,2TCM k2,"Pituitary, control rat B",1.62 ± 0.42 min⁻¹
same,2TCM k3,"Pituitary, control rat B",0.99 ± 1.42 min⁻¹
same,2TCM k4,"Pituitary, control rat B",0.12 ± 2.70 min⁻¹
same,1TCM K1,"Pituitary, control rat C",0.52 ± 0.02 mL/g/min
same,1TCM k2,"Pituitary, control rat C",0.08 ± 0.01 min⁻¹
same,2TCM K1,"Pituitary, control rat C",0.97 ± 0.34 mL/g/min
same,2TCM k2,"Pituitary, control rat C",1.54 ± 0.73 min⁻¹
same,2TCM k3,"Pituitary, control rat C",1.23 ± 2.61 min⁻¹
same,2TCM k4,"Pituitary, control rat C",0.13 ± 4.28 min⁻¹
same,1TCM K1,"Pituitary, control rat D",0.67 ± 0.05 mL/g/min
same,1TCM k2,"Pituitary, control rat D",0.12 ± 0.02 min⁻¹
same,2TCM K1,"Pituitary, control rat D",1.38 ± 0.24 mL/g/min
same,2TCM k2,"Pituitary, control rat D",1.48 ± 0.20 min⁻¹
same,2TCM k3,"Pituitary, control rat D",0.69 ± 0.58 min⁻¹
same,2TCM k4,"Pituitary, control rat D",0.11 ± 1.34 min⁻¹
same,1TCM BPND,"Pituitary, raclopride",0.18±0.05
same,1TCM BPND change relative to control,"Pituitary, raclopride",-38%
same,1TCM VT,"Pituitary, raclopride",5.33±0.88
same,2TCM BPND change relative to control,"Pituitary, raclopride",−23%
same,2TCM VT,"Pituitary, raclopride",6.34±0.82
same,Logan BPND change relative to control,"Pituitary, raclopride",-26%
same,Logan VT,"Pituitary, raclopride",6.53±0.44
